{"source": "ChEMBL document CHEMBL1126326", "about": "“Novel antagonists of the 5-HT3 receptor. Synthesis and structure-activity relationships of (2-alkoxybenzoyl)ureas” (J Med Chem, 1992)", "data": [{"target": "T1, Serotonin 3 (5-HT3) receptor (Rattus norvegicus, UniProt P35563+Q9JJ16)", "T1 sequence (P35563 whole entry)": "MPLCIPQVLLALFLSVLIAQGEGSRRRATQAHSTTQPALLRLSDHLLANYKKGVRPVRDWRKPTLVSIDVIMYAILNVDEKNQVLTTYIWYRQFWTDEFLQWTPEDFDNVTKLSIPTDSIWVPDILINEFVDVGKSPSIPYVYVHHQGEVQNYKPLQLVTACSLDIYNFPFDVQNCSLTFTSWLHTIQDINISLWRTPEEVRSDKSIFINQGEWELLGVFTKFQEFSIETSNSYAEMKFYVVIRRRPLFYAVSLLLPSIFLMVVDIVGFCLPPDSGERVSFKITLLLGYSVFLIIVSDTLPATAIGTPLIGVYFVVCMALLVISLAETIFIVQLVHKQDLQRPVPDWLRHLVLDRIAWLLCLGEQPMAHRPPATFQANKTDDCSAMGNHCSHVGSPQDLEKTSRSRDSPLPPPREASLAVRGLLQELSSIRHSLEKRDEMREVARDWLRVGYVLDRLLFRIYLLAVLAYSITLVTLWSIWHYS", "T1 sequence (Q9JJ16 whole entry)": "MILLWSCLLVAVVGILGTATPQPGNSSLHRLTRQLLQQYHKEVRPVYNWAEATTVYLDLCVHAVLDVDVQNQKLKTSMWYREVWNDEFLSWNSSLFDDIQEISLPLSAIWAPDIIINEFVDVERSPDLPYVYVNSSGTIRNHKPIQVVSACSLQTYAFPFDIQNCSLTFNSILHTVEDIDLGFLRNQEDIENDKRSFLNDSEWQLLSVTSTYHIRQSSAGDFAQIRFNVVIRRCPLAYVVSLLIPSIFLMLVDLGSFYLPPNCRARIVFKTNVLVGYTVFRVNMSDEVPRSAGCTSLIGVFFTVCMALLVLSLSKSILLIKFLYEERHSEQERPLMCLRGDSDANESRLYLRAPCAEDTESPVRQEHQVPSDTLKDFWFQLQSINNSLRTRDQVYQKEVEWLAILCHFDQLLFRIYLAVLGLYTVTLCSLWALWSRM", "test": "In vitro antagonism of the 5-HT-3 receptor determined by inhibition of 5-HT-induced depolarization of the isolated rat vagus nerve.", "assay_type": "functional", "conditions": "read-out: pA2 (converted)", "units": {"Kb": "nM"}, "values": [{"smiles": "COc1ccccc1C(=O)NC(=O)NC1CC2CCC(C1)N2C", "note": "(centres undefined) [listing 1 of 2 here]", "Kb": "> 31.6"}, {"smiles": "CC(C)COc1ccccc1C(=O)NC(=O)NC1CC2CCC(C1)N2C", "note": "(centres undefined)", "Kb": 3.16}, {"smiles": "CC(C)Oc1ccccc1C(=O)NC(=O)NC1CC2CCC(C1)N2C", "note": "(centres undefined)", "Kb": 0.631}, {"smiles": "CN1[C@@H]2CC[C@H]1C[C@@H](OC(=O)c1cc(Cl)cc(Cl)c1)C2", "note": "[BEMESETRON]", "Kb": 15.8}, {"smiles": "COc1ccccc1C(=O)NC(=O)NC1CC2CCC(C1)N2C", "note": "(centres undefined) [listing 2 of 2 here]", "Kb": 2.51}, {"smiles": "CCOc1ccccc1C(=O)NC(=O)NC1CC2CCC(C1)N2C", "note": "(centres undefined)", "Kb": 2.04}, {"smiles": "COc1ccc(Cl)cc1C(=O)NC(=O)NC1CC2CCC(C1)N2C", "note": "(centres undefined)", "Kb": 46.8}, {"smiles": "O=C(NC(=O)c1ccccc1F)NC1CN2CCC1CC2", "note": "(centres undefined)", "Kb": "> 316"}, {"smiles": "COc1ccccc1C(=O)NC(=O)OC1CN2CCC1CC2", "note": "(centres undefined)", "Kb": 36.3}, {"smiles": "COc1ccccc1C(=O)NC(=O)N[C@@H]1CN2CCC1CC2", "Kb": 56.2}, {"smiles": "COc1ccccc1C(=O)NC(=O)NC1CC2CCCC(C1)N2C", "note": "(centres undefined)", "Kb": 39.8}, {"smiles": "CN1C2CCC1CC(NC(=O)NC(=O)c1ccccc1O)C2", "note": "(centres undefined)", "Kb": 12.6}, {"smiles": "COc1cccc(OC)c1C(=O)NC(=O)NC1CN2CCC1CC2", "note": "(centres undefined)", "Kb": "> 316"}, {"smiles": "Cc1ccccc1C(=O)NC(=O)NC1CN2CCC1CC2", "note": "(centres undefined)", "Kb": 251}, {"smiles": "COc1ccccc1C(=O)NC(=O)N[C@H]1CN2CCC1CC2", "Kb": 7.08}, {"smiles": "CCCCOc1ccccc1C(=O)NC(=O)NC1CC2CCC(C1)N2C", "note": "(centres undefined)", "Kb": 2}, {"smiles": "COc1ccc(C(=O)NC(=O)NC2CN3CCC2CC3)cc1", "note": "(centres undefined)", "Kb": "> 316"}, {"smiles": "COc1cc(N)c(Cl)cc1C(=O)NC1CN2CCC1CC2", "note": "(centres undefined) [ZACOPRIDE]", "Kb": 0.794}, {"smiles": "CCCCCOc1ccccc1C(=O)NC(=O)NC1CC2CCC(C1)N2C", "note": "(centres undefined)", "Kb": 31.6}, {"smiles": "CN1C2CCC1CC(NC(=O)NC(=O)c1ccccc1OCC1CC1)C2", "note": "(centres undefined)", "Kb": 1.26}, {"smiles": "O=C(NC(=O)c1cc(Cl)cc(Cl)c1)NC1CN2CCC1CC2", "note": "(centres undefined)", "Kb": 200}, {"smiles": "COc1cc(N)c(Cl)cc1C(=O)NC(=O)NC1CC2CCC(C1)N2C", "note": "(centres undefined)", "Kb": 79.4}, {"smiles": "CN1CCC(OC(=O)NC(=O)c2cc(Cl)cc(Cl)c2)CC1", "Kb": 126}, {"smiles": "CC(C)CCOc1ccccc1C(=O)NC(=O)NC1CC2CCC(C1)N2C", "note": "(centres undefined)", "Kb": 6.31}, {"smiles": "COc1cc(N)ccc1C(=O)NC(=O)NC1CC2CCC(C1)N2C", "note": "(centres undefined)", "Kb": 158}, {"smiles": "COc1ccccc1C(=O)NC(=O)OC1CC2CCC(C1)N2C", "note": "(centres undefined)", "Kb": 17}, {"smiles": "CCCOc1ccccc1C(=O)NC(=O)NC1CC2CCC(C1)N2C", "note": "(centres undefined)", "Kb": 1.26}, {"smiles": "COc1ccccc1C(=O)NC(=O)NC1CN2CCC1CC2", "note": "(centres undefined)", "Kb": 10}, {"smiles": "COc1cc([N+](=O)[O-])ccc1C(=O)NC(=O)NC1CC2CCC(C1)N2C", "note": "(centres undefined)", "Kb": "> 100"}]}]}
